In patent publication US7326731B2, “Muscarinic agonists” (Eli Lilly and Company, priority 2002, dated 2008):
Like-named read-outs stand apart in the source and are kept apart here.

Tested on: Male Sprague-Dawley rats
Settings: six-hour delay

Nc1c2c(nc3ccccc13)CCCC2 [Tacrine, tacrine]
retention in the eight arm radial maze (3 mg/kg s.c. immediately after the sampling phase): not
retention in the eight arm radial maze (10 mg/kg s.c. immediately after the sampling phase): significantly improved retention
